Legend:
[1] = system: mouse deferent vessel (vas deferens); assay: Ex-vivo model: electrically induced contractions of the isolated deferent vessel (vas deferens); set-up: species or system albino CD1 mice; conditions: for Activity compared with the compounds of the invention: FIG. 2; for Inhibition of the contractions induced by the electric stimulus: concentrations lower than or equal to 1×10^−6 M
Excerpt: The use of the isolated deferent vessel organ, as a highly sensitive basic system in an ex-vivo model for evaluating the activity of agonist CB1 compounds, has been described by Pertwee et al. in Br. J. Pharmacol., 105:980-4, 1992. This model has been used also to evaluate the properties of antagonist CB1 compounds and to distinguish antagonist CB1 derivatives from inverse agonist CB1 compounds (Rinaldi-Carmona et al., FEBS Lett., 350:240-4, 1994; Pertwee et al., Eur. J. Pharmacol., 456:99-106, 2002). […] This effect is correlated to the action on the prejunctional neuronal CB1 receptors with the consequent release inhibition, induced by electric stimuli, of contractile neurotransmitters (noradrenaline and ATP) (Schlicker and Kathmann, Trends Pharmacol. Sci., 22:565-72, 2001). The inhibition of the contractions induced by the electric stimulus on the deferent vessel in the presence of agonist (or partial agonist) CB1 compounds are expressed as % of contraction inhibition. Said % contraction inhibition is calculated by the ratio between the contraction amplitude determined in the presence of a given concentration of the compound and that detected in its absence (basal value). The curve of the “% of contraction inhibition” as a function of the logarithm of the concentration of agonist (or partial agonist) CB1 compounds, is sigmoidal. The use of the model for the evaluation of antagonist CB1 compounds is based on the evaluation of their efficacy in inhibiting the action of the deferent vessel of agonist (or partial agonist) CB1 compounds. The inhibition is expressed by a shifting towards the right of the curves % of inhibition of contractions/logarithm of the concentration of the agonist CB1 compound, with increasing the concentration of the antagonist CB1 compound.
As reported in the literature, the experimentation has been carried out by using albino CD1 mice weighing 30-40 grams. The mice deferent vessel was recovered and transferred into an instrument for separated organs supplied by the Firm Ugo Basile (Comerio, Italy). The initial tension was of 0.5 g. The procedure adopted is reported in Pertwee et al. in Br. J. Pharmacol., 110:1483-1490, 1993. In particular the procedure and instruments as described by S. Ruiu et al. in J.P.E.T., Vol. 306, 2003, 363-370, have been used.
In a subsequent experiment it was shown that the compound activity was antagonized by the antagonist CB1 compound N-piperidinyl-[8-chloro-1-(2,4-dichlorophenyl)-1,4,5,6-tetrahydrobenzo[6,7]cyclohepta[1,2-c]pyrazol-3-carboxamide], described by S. Ruiu et al. in J.P.E.T., Vol. 306, 2003, 363-370. The experiment was carried out by adding the antagonist (concentration in bath 1 nM) 20 minutes before the first addition of the compound of the invention.

old DBA/2J mice = assay: Reduction of intraocular pressure (IOP) after application to the eye, TONOLab tonometer; format: in vivo; conditions: for Intraocular Pressure Decrease: versus basal IOP; for Reduction of intraocular pressure: dose 100 μg
Excerpt: The main risk factor in the glaucoma is represented by the high intraocular pressure (IOP). See for instance: Libby R. T. et al., Vis Neurosci. 2005 Sep.-Oct., 22(5):637-48 and Tomida I. et al., Br. J. Opthalmol. 2004 May, 88(5):708-13.
By using the animal model of old DBA/2J mice (see above) it has been evaluated the efficacy of the compound obtained in example 3.1 in reducing the IOP. As said, this compound has a good affinity towards the CB1 receptors in vitro (example 4) and a CB1 agonist action in vivo (example 5). The intraocular pressure has been determined by a TONOLab Tonometer (Tiolat Oy), as reported by M. E. Pease et al. in J. Glaucoma, 2006 December, 15(6):512-519. The compound was dispersed in the commercial emulsion Tocrisolve™, (Tocris), at a concentration of […] and applied to the eye of old DBA/2J mice (8-10 month age; basal IOP comprised between 19.0 and 22.5 mmHg). The applied emulsion volumes were such that the compound doses resulted, respectively, of 100 μg or 50 μg. WIN 55212-2 was dispersed in Tocrisolve™at the concentration of 5 mg/ml and was the reference cannabinoidergic compound. The determination of the ocular pressure was carried out every 30 minutes up to two hours starting from the administration. The obtained results (average of 6 measurements at each time for experimental groups of 8-10 animals for group/dose) are reported in Table 3. IOP decrease was expressed in percent with respect to the basal value.

CB2 receptors = target: T1, CB2 receptors (Mus musculus, UniProt P47936); assay: biochemical; format: binding
T1 construct: the complete brain (excluding the cerebellum) and the spleen were quickly dissected and kept in ice; from tissue; host or cells: mouse spleen, membrane preparation
T1 sequence (P47936 whole entry): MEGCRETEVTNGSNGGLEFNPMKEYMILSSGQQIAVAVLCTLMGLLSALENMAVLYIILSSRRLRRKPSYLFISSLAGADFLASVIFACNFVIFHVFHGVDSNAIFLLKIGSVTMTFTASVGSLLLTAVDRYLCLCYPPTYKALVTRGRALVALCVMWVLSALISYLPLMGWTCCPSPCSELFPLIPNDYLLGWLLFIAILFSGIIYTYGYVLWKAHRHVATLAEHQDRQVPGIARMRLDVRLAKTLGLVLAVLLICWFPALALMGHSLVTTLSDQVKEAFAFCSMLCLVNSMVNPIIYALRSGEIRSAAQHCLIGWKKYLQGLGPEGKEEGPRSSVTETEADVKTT
Description: (§1) The affinity of the synthesized compounds towards the CB1 and CB2 cannabinoidergic receptors was evaluated in vitro by radioreceptor binding studies using the method reported hereinunder.
(§2) The technique of the receptor binding allows to establish if, and with which affinity and specificity, a specific compound binds to a particular receptor. To evaluate the affinity of a specific compound to a particular receptor it is necessary to challenge in a particular tissue preparation wherein those specific receptors are present the compound to be tested with a radioactive labelled compound whose affinity for the same receptors is known. […] The amount of radioactivity present in the receptor-compound complex allows furthermore to estimate with great accuracy the amount of compound bound to the receptor. By said method it is therefore possible to establish quickly the affinity of a new compound towards a specific receptor and thus to determine its pharmacological activity. With the same experimental protocol it is possible to evaluate the affinity of the compound towards other receptors and thus establish its specificity degree toward said other receptors.
(§3) The food and water were ad libitum.
(§4) The procedure adopted, based on the use of the compound [^3H]-CP-55,940 (New England Nuclear, Boston, Mass., USA), requires the use of the mouse brain as biological tissue for the evaluation of the affinity towards the CB1 receptors and of the mouse spleen for the affinity assay for the CB2 receptors.
(§5) The animals were sacrificed by cervical dislocation and the complete brain (excluding the cerebellum) and the spleen were quickly dissected and kept in ice.
(§6) The tissue was homogenized in 15 volumes (weight/volume) of TME buffer (50 Mm Tris, 1 mM EDTA and 3 mM MgCl2, pH 7.4) by an Ultra-Turrax and subsequently centrifuged for 10 minutes at 1086×g in a centrifuge refrigerated at 4° C. The recovered supernatant was centrifuged at 45,000×g for 30 minutes at 4° C. by using a Beckman SW41 rotor and the obtained pellet was resuspended in 50 volumes of TME.
(§7) The thus obtained membranes (50-80 μg of proteins) were incubated in the presence of 1 nM of [^3H]-CP55.940 for 1 hour at 30° C. in a final volume of 0.5 ml of TME buffer containing 5 mg/ml of bovine serum albumin (BSA). The non specific binding was measured in the presence of CP55.940 at a 1 μM concentration.
(§8) All the experiments were carried out in polypropylene test tubes pretreated with Sigma-Cote (Sigma Chemical Co. Ltd., Poole, UK) for reducing non specific binding.
(§9) In order to determine the competitive inhibition binding curves, eight different concentrations of each compound were used.
(§10) Incubation was stopped by addition of TME buffer (at 4° C.) containing 5 mg/ml of BSA, and subsequent filtration under vacuum by Whatman GFC filters pretreated with 0.5% of polyethylamine (PEI) and by using a filtering device (Brandell, Gaithersburg, Md., USA). The filters were washed 3 times with […] of Tris HCl buffer (pH 7.4, 4° C.) containing 1 mg/ml of BSA and separately placed in plastic vials containing 4 ml of scintillating liquid (Ultima Gold MV, Packard).
(§11) The radioactivity present in the filters was determined by a scintillator spectrophotometer (Tricarb® 2100, Packard, Meridien, USA).
(§12) Protein determination was carried out by the Bradford method by using the protocol and the reactants supplied by Bio-Rad (Milano, Italy).

CB1 receptors = target: T2, CB1 receptors (Mus musculus, UniProt P47746); assay: biochemical; format: binding
T2 construct: the complete brain (excluding the cerebellum) and the spleen were quickly dissected and kept in ice; from tissue; host or cells: mouse brain (excluding cerebellum), membrane preparation
T2 sequence (P47746 whole entry): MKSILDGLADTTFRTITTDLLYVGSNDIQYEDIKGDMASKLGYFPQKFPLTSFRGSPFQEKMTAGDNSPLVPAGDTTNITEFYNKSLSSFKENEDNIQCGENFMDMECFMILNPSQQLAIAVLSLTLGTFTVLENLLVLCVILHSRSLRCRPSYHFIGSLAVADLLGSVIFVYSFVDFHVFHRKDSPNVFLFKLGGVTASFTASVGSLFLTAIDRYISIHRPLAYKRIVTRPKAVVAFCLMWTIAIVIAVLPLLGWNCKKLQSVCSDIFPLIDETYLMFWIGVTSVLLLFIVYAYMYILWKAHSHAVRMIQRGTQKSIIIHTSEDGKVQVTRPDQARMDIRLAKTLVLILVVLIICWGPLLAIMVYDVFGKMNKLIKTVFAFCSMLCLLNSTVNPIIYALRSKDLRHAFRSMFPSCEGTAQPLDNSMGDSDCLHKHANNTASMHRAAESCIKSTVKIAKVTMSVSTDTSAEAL
Description: as §1, §2, §3, §4, §5, §6, §7, §8, §9, §10, §11, §12

patients = conditions: cited from earlier work
[2] = 50 μg to the eye in Tocrisolve, 30 minutes
[3] = 50 μg to the eye in Tocrisolve, 60 minutes
[4] = 50 μg to the eye in Tocrisolve, 90 minutes
[5] = 50 μg to the eye in Tocrisolve, 120 minutes
[6] = 100 μg to the eye in Tocrisolve, 30 minutes
[7] = 100 μg to the eye in Tocrisolve, 60 minutes
[8] = 100 μg to the eye in Tocrisolve, 90 minutes
[9] = 100 μg to the eye in Tocrisolve, 120 minutes

Compound: Cc1ccc(Cn2nc(C(=O)NC3CC(C)CCC3C(C)C)c3c2-c2sc(C)cc2C3)cc1 (centres unmarked) [Compound (XC), N-menthyl-6-methyl-1-(4′-methylbenzyl)-1,4-dihydro-thieno[3′,2′:4,5]cyclopenta[1,2-c]pyrazol-3-carboxamide]
- Activity compared with the compounds of the invention [1]: lower than that of the compounds of the invention
- Inhibition of the contractions induced by the electric stimulus [1]: able to significantly inhibit the contractions
- Intraocular Pressure Decrease (old DBA/2J mice; [2]): 2.9%
- Intraocular Pressure Decrease (old DBA/2J mice; [3]): 2.2%
- Intraocular Pressure Decrease (old DBA/2J mice; [4]): 0.8%
- Intraocular Pressure Decrease (old DBA/2J mice; [5]): 1.5%
- Intraocular Pressure Decrease (old DBA/2J mice; [6]): 22.2%
- Intraocular Pressure Decrease (old DBA/2J mice; [7]): 22.4%
- Intraocular Pressure Decrease (old DBA/2J mice; [8]): 25.0%
- Intraocular Pressure Decrease (old DBA/2J mice; [9]): 16.7%
- Reduction of intraocular pressure (old DBA/2J mice): able to significantly reduce the intraocular pressure
- Ki (CB2 receptors): 2.5 ± 0.3 nM
- Ki (CB1 receptors): 33 ± 8.2 nM

Compound: Cc1cc2c(s1)-c1c(c(C(=O)NC3C4(C)CCC(C4)C3(C)C)nn1-c1ccc(Cl)cc1Cl)C2 (centres unmarked) [Compound (XD), N-fenchyl-1-(2′,4′-dichlorophenyl)-6-methyl-1,4-dihydro-thieno[3′,2′:4,5]cyclopenta[1,2-c]pyrazol-3-carboxamide]
- Activity compared with the compounds of the invention [1]: lower than that of the compounds of the invention
- Inhibition of the contractions induced by the electric stimulus [1]: able to significantly inhibit the contractions
- Intraocular Pressure Decrease (old DBA/2J mice; [2]): 3.0%
- Intraocular Pressure Decrease (old DBA/2J mice; [3]): 2.0%
- Intraocular Pressure Decrease (old DBA/2J mice; [4]): 0.5%
- Intraocular Pressure Decrease (old DBA/2J mice; [5]): 1.0%
- Intraocular Pressure Decrease (old DBA/2J mice; [6]): 16.6%
- Intraocular Pressure Decrease (old DBA/2J mice; [7]): 14.0%
- Intraocular Pressure Decrease (old DBA/2J mice; [8]): 11.2%
- Intraocular Pressure Decrease (old DBA/2J mice; [9]): 11.1%
- Reduction of intraocular pressure (old DBA/2J mice): able to significantly reduce the intraocular pressure
- Ki (CB2 receptors): 15 ± 3.2 nM
- Ki (CB1 receptors): 43.3 ± 5.5 nM

Compound: Cc1cc2c(s1)-c1c(c(C(=O)NCC3CCC4CC3C4(C)C)nn1-c1ccc(F)cc1F)C2 (centres unmarked) [Example 3.2, N-myrtanyl-1-(2′,4′-difluorophenyl)-6-methyl-1,4-dihydrothieno[3′,2′:4,5]cyclopenta[1,2-c]pyrazol-3-carboxamide]
- Ki (CB2 receptors): 5.8 ± 1 nM
- Ki (CB1 receptors): 22.3 ± 25 nM

Compound: CC1(C)C2CCC(CNC(=O)c3nn(-c4ccc(Cl)cc4Cl)c4c3CCc3sc(-c5ccccc5)cc3-4)C1C2 (centres unmarked) [Example 3.6, N-myrtanyl-1-(2′,4′-dichlorophenyl)-7-phenyl-4,5-dihydro-1H-thieno[2,3-g]indazol-3-carboxamide]
- Ki (CB2 receptors): 4350 ± 251 nM
- Ki (CB1 receptors): 86.4 ± 20 nM

Compound: Cc1csc2c1Cc1c(C(=O)NCC3CCC4CC3C4(C)C)nn(-c3ccc(Cl)cc3Cl)c1-2 (centres unmarked) [Example 3.7, N-myrtanyl-5-methyl-1-(2′,4′-dichlorophenyl)-1,4-dihydro-thieno[3′,2′:4,5]cyclopenta[1,2-c]pyrazol-3-carboxamide]
- melting point: 112 to 113 °C
- Ki (CB2 receptors): 4.5 ± 0.8 nM
- Ki (CB1 receptors): 919 ± 226 nM

Compound: Cc1cc2c(s1)-c1c(c(C(=O)NCC3CCC4CC3C4(C)C)nn1-c1ccc(Cl)cc1Cl)C2 (centres unmarked) [Example 3.8, N-myrtanyl-1-(2′,4′-dichlorophenyl)-6-methyl-1,4-dihydro-thieno[3′,2′:4,5]cyclopenta[1,2-c]pyrazole-3-carboxamide]
- Ki (CB2 receptors): 30.6 ± 7.2 nM
- Ki (CB1 receptors): 400 ± 71 nM

Compound: CC1(C)C2CCC(CNC(=O)c3nn(-c4ccc(F)cc4F)c4c3Cc3cc(Br)sc3-4)C1C2 (centres unmarked) [Example 3.12, N-myrtanyl-6-bromo-1-(2′,4′-difluorophenyl)-1,4-dihydro-thieno[3′,2′:4,5]cyclopenta[1,2-c]pyrazole-3-carboxamide]
- Ki (CB2 receptors): 9.3 ± 1.5 nM
- Ki (CB1 receptors): 160 ± 2.5 nM

Compound: Cc1cc2c(s1)-c1c(c(C(=O)CC3CCCCC3)nn1-c1ccc(Cl)cc1Cl)C2 [Example 3.15, 1-(2′,4′-dichlorophenyl)-6-methyl-3-(1-oxo-2-cyclohexyleth-1-yl)-1,4-dihydro-thieno[3′,2′:4,5]cyclopenta[1,2-c]pyrazole]
- Ki (CB2 receptors): 5.4 ± 1.4 nM
- Ki (CB1 receptors): 720 ± 139 nM

Compound: Cc1c(C(=O)NN2CCCCC2)nn(-c2ccc(Cl)cc2Cl)c1-c1ccc(Cl)cc1 [SR141716A]
- Reduction of weight and metabolic and/or cardiovascular risk factors (patients; patients with metabolic syndrome and/or dyslipidemia): effective in reducing both weight and metabolic and/or cardiovascular risk factors
- Reduction of metabolic and/or cardiovascular risk factors (patients; patients with type 2 diabetes): effectiveness of Rimonabant in reducing metabolic and/or cardiovascular risk factors has been shown
